According to patent US20130150325A1, “3-(Fluorovinyl)pyrazoles and their use” (BAYER INTELLECTUAL PROPERTY GMBH, priority 2011, published 2013):

System: HCT 116 cells transfected with a luciferase reporter under the control of an HIF-responsive sequence
Assay: HIF-luciferase assay
Assay type: cell-based
Conditions: Homo sapiens; HCT 116 HIF-luciferase reporter cells, hypoxia chamber (1% O2), 24 h; in some cases means of up to four individual determinations
Procedure: HCT 116 cells were transfected in a stable manner with a plasmid which contained a luciferase reporter under the control of an HIF-responsive sequence. These cells were sown in microtitre plates [20 000 cells/cavity in RPMI 1640 medium with 10% foetal calf serum (FCS) and 100 μg/ml of hygromycin]. Incubation was carried out overnight under standard conditions (5% CO2, 21% O2, 37° C., moistened). The following morning the cells were incubated with various concentrations of the test substances (0-10 μmol/l) in a hypoxia chamber (1% O2). After 24 h, Bright Glo reagent (Promega, Wisconsin, USA) was added in accordance with the manufacturer's instructions, and after 5 min the luminescence was measured. Cells which were incubated under normoxia served as background controls.
The IC50 values from this assay for representative working examples are listed in the following table (in same cases as means of up to four individual determinations): […]

Compound Cc1cc(/C(F)=C/c2ccc(C(C)(C)C(F)(F)F)cc2)nn1Cc1cccc(C(C)(C)O)c1 [Example 54, 2-{3-[(3-{(Z)-1-Fluoro-2-[4-(1,1,1-trifluoro-2-methylpropan-2-yl)phenyl]vinyl}-5-methyl-1H-pyrazol-1-yl)methyl]phenyl}propan-2-ol] has an IC50 of 3 nM.
In the case of Cc1cc(/C(F)=C/c2ccc(OC(F)(F)F)cc2)nn1Cc1cccc(C2(CO)CC2)c1 [Example 55, (1-{3-[(3-{(Z)-1-Fluoro-2-[4-(trifluoromethoxy)phenyl]vinyl}-5-methyl-1H-pyrazol-1-yl)methyl]-phenyl}cyclopropyl)methanol], the IC50 is reported as 4 nM.
Cc1cc(/C(F)=C/c2ccc(SC(F)(F)F)cc2)nn1Cc1cccc(C2(CO)CC2)c1 [Example 56, {1-[3-({3-[(Z)-1-Fluoro-2-{4-[(trifluoromethyl)sulphanyl]phenyl}vinyl]-5-methyl-1H-pyrazol-1-yl}methyl)phenyl]cyclopropyl}methanol] was tested, and the IC50 was 2 nM.
Compound Cc1cc(/C(F)=C/c2ccc(C(C)(C)C(F)(F)F)cc2)nn1Cc1cccc(C2(CO)CC2)c1 [Example 57, (1-{3-[(3-{(Z)-1-Fluoro-2-[4-(1,1,1-trifluoro-2-methylpropan-2-yl)phenyl]vinyl}-5-methyl-1H-pyrazol-1-yl)methyl]phenyl}cyclopropyl)methanol] has an IC50 of 1 nM.
Cc1cc(/C(F)=C/c2ccc(C(C)(C)C(F)(F)F)c(F)c2)nn1Cc1cccc(C2(CO)CC2)c1 [Example 58, (1-{3-[(3-{(Z)-1-Fluoro-2-[3-fluoro-4-(1,1,1-trifluoro-2-methylpropan-2-yl)phenyl]vinyl}-5-methyl-1H-pyrazol-1-yl)methyl]phenyl}cyclopropyl)methanol] was tested, and the IC50 was 2 nM.
Cc1cc(/C(F)=C/c2ccc(C3(C(F)(F)F)CC3)cc2)nn1Cc1cccc(C2(CO)CC2)c1 [Example 59, {1-[3-({3-[(Z)-1-Fluoro-2-{4-[1-(trifluoromethyl)cyclopropyl]phenyl}vinyl]-5-methyl-1H-pyrazol-1-yl}methyl)phenyl]cyclopropyl}methanol] showed an IC50 of 2 nM.
Cc1cc(/C(F)=C/c2ccc(OC(F)(F)F)cc2)nn1Cc1cccc(C(F)(F)CO)c1 [Example 61, 2,2-Difluoro-2-{3-[(3-{(Z)-1-fluoro-2-[4-(trifluoromethoxy)phenyl]vinyl}-5-methyl-1H-pyrazol-1-yl)methyl]phenyl}ethanol] was tested, and the IC50 was 4 nM.
With Cc1cc(/C(F)=C/c2ccc(C(C)(C)C(F)(F)F)cc2)nn1Cc1cccc(C(F)(F)CO)c1 [Example 62, 2,2-Difluoro-2-{3-[(3-{(Z)-1-fluoro-2-[4-(1,1,1-trifluoro-2-methylpropan-2-yl)phenyl]vinyl}-5-methyl-1H-pyrazol-1-yl)methyl]phenyl}ethanol] the IC50 was 2.5 nM.
Cc1cc(/C(F)=C/c2ccc(C3(C(F)(F)F)CC3)cc2)nn1Cc1cccc(C(F)(F)CO)c1 [Example 63, 2,2-Difluoro-2-[3-({3-[(Z)-1-fluoro-2-{4-[1-(trifluoromethyl)cyclopropyl]phenyl}vinyl]-5-methyl-1H-pyrazol-1-yl}methyl)phenyl]ethanol] showed an IC50 of 3 nM.
Work on Cc1cc(/C(F)=C/c2ccc(C(C)(C)C(F)(F)F)cc2)nn1Cc1cccc(CC(C)(C)O)c1 [Example 64, 1-{3-[(3-{(Z)-1-Fluoro-2-[4-(1,1,1-trifluoro-2-methylpropan-2-yl)phenyl]vinyl}-5-methyl-1H-pyrazol-1-yl)methyl]phenyl}-2-methylpropan-2-ol] yielded an IC50 of 2 nM.
Work on CNc1ccc(Cn2nc(/C(F)=C/c3ccc(OC(F)(F)F)cc3)cc2C)cn1 [Example 79, 5-[(3-{(Z)-1-Fluoro-2-[4-(trifluoromethoxy)phenyl]vinyl}-5-methyl-1H-pyrazol-1-yl)methyl]-N-methylpyridine-2-amine] yielded an IC50 of 1 nM.
With CNc1ccc(Cn2nc(/C(F)=C/c3ccc(OC(F)(F)F)c(F)c3)cc2C)cn1 [Example 80, 5-[(3-{(Z)-1-Fluoro-2-[3-fluoro-4-(trifluoromethoxy)phenyl]vinyl}-5-methyl-1H-pyrazol-1-yl)-methyl]-N-methylpyridine-2-amine] the IC50 was 2.8 nM.
CNc1ccc(Cn2nc(/C(F)=C/c3ccc(OC(F)(F)F)c(Cl)c3)cc2C)cn1 [Example 81, 5-[(3-{(Z)-2-[3-Chloro-4-(trifluoromethoxy)phenyl]-1-fluorovinyl}-5-methyl-1H-pyrazol-1-yl)-methyl]-N-methylpyridine-2-amine] was tested, and the IC50 was 3 nM.
For CNc1ccc(Cn2nc(/C(F)=C/c3ccc(SC(F)(F)F)cc3)cc2C)cn1 [Example 82, 5-({3-[(Z)-1-Fluoro-2-{4-[(trifluoromethyl)sulphanyl]phenyl}vinyl]-5-methyl-1H-pyrazol-1-yl}-methyl)-N-methylpyridine-2-amine], the IC50 was 1 nM.
In the case of CNc1ccc(Cn2nc(/C(F)=C/c3ccc(C(C)(C)C(F)(F)F)cc3)cc2C)cn1 [Example 83, 5-[(3-{(Z)-1-Fluoro-2-[4-(1,1,1-trifluoro-2-methylpropan-2-yl)phenyl]vinyl}-5-methyl-1H-pyrazol-1-yl)methyl]-N-methylpyridine-2-amine], the IC50 is reported as 0.4 nM.
CNc1ccc(Cn2nc(/C(F)=C/c3ccc(C4(C(F)(F)F)CC4)cc3)cc2C)cn1 [Example 84, 5-({3-[(Z)-1-Fluoro-2-{4-[1-(trifluoromethyl)cyclopropyl]phenyl}vinyl]-5-methyl-1H-pyrazol-1-yl}methyl)-N-methylpyridine-2-amine] gave an IC50 of 2 nM.
Work on CNc1ccc(Cn2nc(/C(F)=C/c3ccc(C(F)(F)F)cc3)cc2C)cn1 [Example 85, 5-[(3-{(Z)-1-Fluoro-2-[4-(trifluoromethyl)phenyl]vinyl}-5-methyl-1H-pyrazol-1-yl)methyl]-N-methylpyridine-2-amine] yielded an IC50 of 4 nM.
Compound CNc1ccc(Cn2nc(/C(F)=C/c3ccc([Si](C)(C)C)cc3)cc2C)cn1 [Example 86, 5-[(3-{(Z)-1-Fluoro-2-[4-(trimethylsilyl)phenyl]vinyl}-5-methyl-1H-pyrazol-1-yl)methyl]-N-methylpyridine-2-amine] has an IC50 of 0.3 nM.
Compound CNc1ccc(Cn2nc(/C(F)=C/c3ccc(C(C)(C)C)cc3)cc2C)cn1 [Example 87, 5-({3-[(Z)-2-(4-tert-Butylphenyl)-1-fluorovinyl]-5-methyl-1H-pyrazol-1-yl}methyl)-N-methylpyridine-2-amine] has an IC50 of 0.7 nM.
For CNc1ccc(Cn2nc(/C(F)=C/c3ccc(C4CCCCC4)cc3)cc2C)cn1 [Example 88, 5-({3-[(Z)-2-(4-Cyclohexylphenyl)-1-fluorovinyl]-5-methyl-1H-pyrazol-1-yl}methyl)-N-methylpyridine-2-amine], the IC50 was 2 nM.
Compound CNc1ccc(Cn2nc(/C(F)=C/c3ccc(C(C)C)cc3)cc2C)cn1 [Example 89, 5-({3-[(Z)-1-Fluoro-2-(4-isopropylphenyl)vinyl]-5-methyl-1H-pyrazol-1-yl}methyl)-N-methyl-pyridine-2-amine] has an IC50 of 2 nM.
CNc1ccc(Cn2nc(/C(F)=C/c3ccc(CC(C)C)cc3)cc2C)cn1 [Example 90, 5-({3-[(Z)-1-Fluoro-2-(4-isobutylphenyl)vinyl]-5-methyl-1H-pyrazol-1-yl}methyl)-N-methyl-pyridine-2-amine] showed an IC50 of 2 nM.
In the case of CNc1ccc(Cn2nc(/C(F)=C/c3ccc(S(F)(F)(F)(F)F)cc3)cc2C)cn1 [Example 91, 5-[(3-{(Z)-1-Fluoro-2-[4-(pentafluoro-λ^6-sulphanyl)phenyl]vinyl}-5-methyl-1H-pyrazol-1-yl)-methyl]-N-methylpyridine-2-amine], the IC50 is reported as 0.3 nM.
Compound CCNC(=O)C(C)(C)Sc1ccc(/C=C(\F)c2cc(C)n(Cc3ccc(NC)nc3)n2)cc1 [Example 92, N-Ethyl-2-({4-[(Z)-2-fluoro-2-(5-methyl-1-{[6-(methylamino)pyridin-3-yl]methyl}-1H-pyrazol-3-yl)vinyl]phenyl}sulphanyl)-2-methylpropanamide] has an IC50 of 5 nM.
CNc1ccc(Cn2nc(/C(F)=C/c3ccc(SC(C)(C)C(=O)N4CCCC4)cc3)cc2C)cn1 [Example 93, 2-({4-[(Z)-2-Fluoro-2-(5-methyl-1-{[6-(methylamino)pyridin-3-yl]methyl}-1H-pyrazol-3-yl)-vinyl]phenyl}sulphanyl)-2-methyl-1-(pyrrolidin-1-yl)propan-1-one] gave an IC50 of 5 nM.
CNc1ccc(Cn2nc(/C(F)=C/c3ccc(CN(C(C)C)C(C)C)cc3)cc2C)cn1 [Example 94, 5-({3-[(Z)-2-{4-[(Diisopropylamino)methyl]phenyl}-1-fluorovinyl]-5-methyl-1H-pyrazol-1-yl}-methyl)-N-methylpyridine-2-amine] gave an IC50 of 1 nM.
With CNc1ccc(Cn2nc(/C(F)=C/c3ccc(N4CC(C)OC(C)C4)nc3)cc2C)cn1 (centres unmarked) [Example 95, 5-[(3-{(Z)-2-[6-(2,6-Dimethylmorpholin-4-yl)pyridin-3-yl]-1-fluorovinyl}-5-methyl-1H-pyrazol-1-yl)methyl]-N-methylpyridine-2-amine] the IC50 was 0.6 nM.
CCNc1ccc(Cn2nc(/C(F)=C/c3ccc(C(C)(C)C(F)(F)F)cc3)cc2C)cn1 [Example 96, N-Ethyl-5-[(3-{(Z)-1-fluoro-2-[4-(1,1,1-trifluoro-2-methylpropan-2-yl)phenyl]vinyl}-5-methyl-1H-pyrazol-1-yl)methyl]pyridine-2-amine] was tested, and the IC50 was 1 nM.
Compound CCNc1ccc(Cn2nc(/C(F)=C/c3ccc(C(O)(C(F)(F)F)C(F)(F)F)cc3)cc2C)cn1 [Example 97, 2-{4-[(Z)-2-(1-{[6-(Ethylamino)pyridin-3-yl]methyl}-5-methyl-1H-pyrazol-3-yl)-2-fluorovinyl]-phenyl}-1,1,1,3,3,3-hexafluoropropan-2-ol] has an IC50 of 20 nM.
